Patent US7198804B2, “Crude drug composition for preventing and treating gastrointestinal dyskinetic diseases” (Helixir Co., Ltd., priority 2002, dated 2007)
Counter-ions that a name gives are not always drawn.

Assays:
[1] = tested on: gastrointestinal motility; assay: Gastrointestinal transit (GIT) of charcoal meal in mice; assay type: in vivo, ICR derived mice; conditions: for GIT: mean±S.E.M.
Protocol: Female ICR derived mice (Seoul National University) weighing 22±2 grams were used. All animals were maintained in a controlled environment with temperatures at 22° C.–24° C. and humidity at 60%–80% with 12 hours of light and dark cycles for at least one week prior to use. 9 groups of 8 ICR derived female mice were fasted with free access to water for 16 hours prior to testing.
For the estimation of the effect on gastrointestinal motility, 0.1 g of the brown powder of each formulation obtained in Example 1, was dissolved in 1 ml of 2% Tween 80 (Wako, Japan) and administrated orally to the mice.
Atropine sulfate (Sigma, USA) was used for the negative control in the experiment, which is known to induce smooth muscle relaxation. Mosapride citrate was administered at 20 mg/kg. Each crude drug composition of 6 formulations prepared in Example 1, was administered at 1.0 g/kg. At 60 minutes post dosing, the animals were given a suspension of 5% activated charcoal (Sigma, USA) in a 10% arabic gum (Sigma, USA) solution (0.3 ml/animal p.o.) and sacrificed 15 minutes later.
The intestine was removed and the length of the gut in cm (GL) as well as distance of charcoal movement from the pylorus to the beginning of the charcoal column in cm (CP), was measured. Gastrointestinal transit (GIT) has been calculated as below Formula 1. The mean GIT value of each group has been compared to that of the vehicle control. GIT(%)=(CP/GL)×100 Formula 1
Values were expressed as means±S.E.M. Students' t-test was used for the statistical analysis of the results of gastrointestinal transit. Probability values (p) less than 0.05 were considered to be significant.
PG202, prepared in Example 1, was administered into the mice orally at concentrations of 0.1 g/kg, 1.0 g/kg, and 5.0 g/kg. The control group was administered with the vehicle (2% Tween 80) at 10 ml/kg. At 60 minutes post dosing, the animals were given a suspension of 5% activated charcoal (Sigma, USA) in a 10% Arabic gum (Sigma, USA) solution (0.3 ml/animal p.o.) and sacrificed 15 minutes later and the gastrointestinal transit (GIT) was examined according to the Formula 1. Data have been expressed as means±S.E.M.*p<0.05.
PG202 was administrated orally at 1.0 g/kg to the test group, 2% Tween 80 (Wako, Japan) at 10 ml/kg to control group, Mosapride citrate at 20 mg/kg to positive control group, Atropine sulfate (Sigma, USA) at 100 mg/kg to negative control group. Data have been expressed as means±S.E.M.*p<0.05.
At 60 minutes post dosing, the animals were given a suspension of 5% activated charcoal (Sigma, USA) in a 10% arabic gum (Sigma, USA) solution (0.3 ml /animal p.o.) and sacrificed 15 minutes later. GIT (%) values were determined according to the Formula 1.

rodents = conditions: cited from earlier work

With CN1[C@@H]2CC[C@H]1CC(OC(=O)C(CO)c1ccccc1)C2.CN1[C@@H]2CC[C@H]1CC(OC(=O)C(CO)c1ccccc1)C2.O=S(=O)(O)O (some centres unmarked) [Atropine, Atropine sulfate] the “decrease of GIT in comparison to the control group” value ([1]; 100 mg/kg p.o.) was 35% and the GIT ([1]; 100 mg/kg p.o., negative control) was 35.4±3.4%.

In the case of CCOc1cc(N)c(Cl)cc1C(=O)NCC1CN(Cc2ccc(F)cc2)CCO1 (centres unmarked) [mosapride citrate], the “increase of GIT compared to the control” value ([1]; 20 mg/kg p.o.) is given as 21%, the GIT ([1]; 20 mg/kg p.o., positive control) is given as 63.7±5.2% and the “incidence of hepatocellular adenoma and thyroid follicular cell adenoma” value (rodents) is given as “increased”.
